The values below come from patent US9340551B2, “Inhibitors of bacterial type III secretion system” (MICROBIOTIX, INC., priority 2011, dated 2016).

The test system of series [1] is T3SS-mediated secretion of ExoS′-βLA fusion protein, P. aeruginosa strain MDM973. As to the kind of experiment: ExoS′-βLA effector-β-lactamase secretion assay (nitrocefin cleavage). The settings on record: for IC50: Pseudomonas aeruginosa; for IC50 in the ExoS′βLA assay versus reference inhibitor MBX-1641, in words: FIG. 2; for inhibition of ExoS′-βLA secretion, in words: FIG. 4, concentration-dependence; for Secretion, % @50 μM: Table 4; for performance in T3SS-mediated secretion relative to MBX-1641, in words: α-propyl and α-isopropyl analogs.

Series [2] in a line: Mammalian cytotoxicity (MTS conversion, serum-free medium). In kind it is cell-based, human. The settings on record: human, HeLa cells.
For series [3], the system named is T3SS-mediated translocation (ExoU intoxication of CHO cells). As to the kind of experiment: Inhibition of P. aeruginosa ExoU-dependent CHO cell killing (LDH release). As to conditions: Pseudomonas aeruginosa. A general note: LDH in the medium is a marker of cell lysis.
Method: Rescue of CHO cells from T3SS-mediated cytotoxicity of translocated effector protein ExoU was measured using a lactate dehydrogenase (LDH) release assay as previously reported (Lee, et al., 2005, Infect. Immun., 73:1695-705) except that infection with P. aeruginosa was carried out for 2 hr in the absence of gentamicin. Percent cytotoxicity (% LDH release) was calculated relative to that of the uninfected control, which was set at 0% LDH release, and that of cells infected with P. aeruginosa unprotected by test compound (100% LDH release). LDH released from unprotected, infected cells reached at least 80% of the value obtained from complete lysis with 1% Triton X-100 in the 2 hr timeframe of this experiment.
A further series has as its system HeLa cells. Put plainly: Mammalian cytotoxicity (MTS conversion, serum-free medium). The settings on record: Table 4; average of 1-20 determinations; read-out: Ave. CC50. In kind it is cell-based, human.
The mark [4] stands for this setting: Table 4, average of 1-20 determinations, read-out: Ave. CC50.
The mark [5] stands for this setting: read-out: Ave. Translocation IC50.

Each structure is given as a SMILES string. Like-named read-outs stand apart in the source and are kept apart here.

Turning to `CC(Oc1ccc(Cl)cc1Cl)C(=O)NCc1ccc2c(c1)OCO2` (racemic) [MBX-1641, N-(benzo[d][1,3]dioxol-5-ylmethyl)-2-(2,4-dichlorophenoxy)propanamide, reference compound], the IC50 – broadly, the concentration that gives 50% inhibition – in series [1] (read-out: Ave. Secretion IC50) came out at 7 µM.
For `CCC(Oc1ncc(Cl)cc1Cl)C(=O)NCc1ccc2c(c1)OCO2` (racemic) [MBX-2263], in series [2] (setting [4]), the CC50 (commonly the concentration giving 50% cytotoxicity) at 3 days is > 100 µM. In addition, in series [1], the “IC50 in the ExoS′βLA assay versus reference inhibitor MBX-1641, in words” value is “improvements” and the “inhibition of ExoS′-βLA secretion, in words” value (shortened to “inhibition”) is “potent inhibition of secretion”. In addition, the IC50 in series [1] (read-out: Ave. Secretion IC50) was determined as 2 µM. Also, the IC50 in series [3] (setting [5]) is 17 µM.
Regarding `CCC(Oc1ncc(Cl)cc1Cl)C(=O)NCc1ccc2sccc2c1` (racemic) [MBX-2359, N-(benzo[b]thiophen-5-ylmethyl)-2-(3,5-dichloropyridin-2-yloxy)butanamide], the “inhibition” value in series [1] is given as “potent inhibition of secretion”. Further, the IC50 in series [1] (read-out: Ave. Secretion IC50) is 1.5 µM.
In the case of `CC(Oc1ccc(Cl)cc1Cl)C(=O)NCc1ccc(F)cc1` (centres unmarked) [MBX-1642], in series [1] (read-out: Ave. Secretion IC50), the IC50 stood at 9.8 µM.
Take `COc1ccc(CNC(=O)C(C)Oc2ccc(Cl)cc2Cl)cc1` (centres unmarked) [MBX-1940]: the melting point (usually the temperature of the solid-liquid transition) was 77 °C.
On the same count and under the same terms, next, `COc1ccc(CNC(=O)C(C)Oc2ccc(Cl)cc2Cl)cc1OC` (centres unmarked) [MBX-1942]: 127 °C.
The molecule `CCC(Oc1ccc(Cl)cc1Cl)C(=O)NCc1ccc2c(c1)OCO2` (centres unmarked) [MBX-2081] registered a melting point of 112 °C. Also, the cytotoxic concentration (CC50) at 3 days in series [2] (Table 3, serum-free media, read-out: CC50) was > 200 µM. In addition, the CC50 with HeLa cells is > 200 µM. Moreover, the “IC50 in the ExoS′βLA assay versus reference inhibitor MBX-1641, in words” value in series [1] is reported as “improvements”. Further, in series [1] (read-out: Ave. Secretion IC50), the IC50 turned out to be 3.9 µM. Besides, the IC50 in series [1] (read-out: Secretion IC50) amounted to 3.9 µM. Moreover, the “SI, Selectivity Index (CC50/secretion IC50)” value in series [1] (Table 3, HeLa CC50 / secretion IC50) is >50. For the same molecule, the “increase in potency as a T3SS inhibitor relative to MBX-1641” value in series [1] (α-ethyl analog versus MBX-1641) was 3-4 fold. Moreover, in series [3] (setting [5]), the concentration for half-maximal inhibition (IC50) turned out to be 4.2 µM. Moreover, the IC50 in series [3] (read-out: Translocation IC50) amounted to 4.2 µM.
In turn, `CCC(Oc1ccc(Cl)cc1Cl)C(=O)NCc1ccc(OC)c(OC)c1` (centres unmarked) [MBX-2082] displayed a melting point of 117 °C. For the same molecule, the IC50 in series [1] (read-out: Ave. Secretion IC50) was determined as 16.3 µM. The IC50 in series [3] (setting [5]) was > 100 µM.
The molecule `CCC(Oc1ccc(Cl)cc1Cl)C(=O)NCc1ccc(OC)cc1` (centres unmarked) [MBX-2083] displayed a melting point of 86 °C. Moreover, the concentration for half-maximal inhibition (IC50) in series [1] (read-out: Ave. Secretion IC50) was found to be 8.1 µM. Besides, in series [3] (setting [5]), the IC50 is 29.3 µM.
Regarding `CCC(Oc1ccc(Cl)cc1Cl)C(=O)NCc1ccc(F)cc1` (centres unmarked) [MBX-2084], the melting point was 108 °C. In addition, the CC50 at 3 days in series [2] (setting [4]) amounted to 45 µM. The IC50 in series [1] (read-out: Ave. Secretion IC50) was determined as 4.3 µM. Besides, the IC50 in series [3] (setting [5]) came to 7.4 µM.
Consider `CCCC(Oc1ccc(Cl)cc1Cl)C(=O)NCc1ccc2c(c1)OCO2` (centres unmarked) [MBX-2085], for which the melting point amounted to 92 °C. In addition, in series [1] (Table 3, @50 μM), the “Secretion, % @50 μM (printed in the Secretion IC50 column)” value is listed as 14% @50 μM. The “Secretion, % @50 μM” value in series [1] (@50 μM) worked out at 14% @50 μM. In addition, the “performance in T3SS-mediated secretion relative to MBX-1641, in words” value in series [1] was “significantly inferior performance”.
Regarding `CCCC(Oc1ccc(Cl)cc1Cl)C(=O)NCc1ccc(OC)c(OC)c1` (centres unmarked) [MBX-2086], the melting point was determined as 82 °C. Also, in series [1] (@50 μM), the “Secretion, % @50 μM” value was 18% @50 μM.
As for `CCCC(Oc1ccc(Cl)cc1Cl)C(=O)NCc1ccc(OC)cc1` (centres unmarked) [MBX-2087], the melting point came out at 103 °C. In addition, the “Secretion, % @50 μM” value in series [1] (@50 μM) came to 16% @50 μM.
For `CCCC(Oc1ccc(Cl)cc1Cl)C(=O)NCc1ccc(F)cc1` (centres unmarked) [MBX-2088], in series [1] (@50 μM), the “Secretion, % @50 μM” value is 9% @50 μM.
`CC(C)C(Oc1ccc(Cl)cc1Cl)C(=O)NCc1ccc2c(c1)OCO2` (centres unmarked) [MBX-2146] returned a melting point of 74 °C. The IC50 in series [1] (read-out: Ave. Secretion IC50) came out at 100 µM. In series [1] (read-out: Secretion IC50), the IC50 worked out at 100 µM. Also, the “performance in T3SS-mediated secretion relative to MBX-1641, in words” value in series [1] was “significantly inferior performance”.
In the case of `COc1ccc(CNC(=O)C(Oc2ccc(Cl)cc2Cl)C(C)C)cc1OC` (centres unmarked) [MBX-2147], the melting point came to 109 °C. Moreover, the half-maximal inhibitory concentration (IC50) in series [1] (read-out: Ave. Secretion IC50) is 94.9 µM. Also, in series [3] (setting [5]), the 50% inhibitory concentration (IC50) is > 100 µM.
Molecule `COc1ccc(CNC(=O)C(Oc2ccc(Cl)cc2Cl)C(C)C)cc1` (centres unmarked) [MBX-2148] yielded a melting point of 77 °C. Further, the IC50 in series [1] (read-out: Ave. Secretion IC50) came out at 210 µM.
Take `CC(C)C(Oc1ccc(Cl)cc1Cl)C(=O)NCc1ccc(F)cc1` (centres unmarked) [MBX-2149]: the melting point came to 106 °C. Further, in series [1] (read-out: Ave. Secretion IC50), the IC50 amounted to 1580 µM.
For the molecule `CCC(Oc1ccc(Cl)cc1Cl)C(=O)N(C)Cc1ccc2c(c1)OCO2` (centres unmarked) [MBX-2159], the IC50 in series [1] (read-out: Ave. Secretion IC50) was 19.1 µM; in series [3] (setting [5]) it was > 100 µM.
In the case of `CCC(Oc1ncc(Cl)cc1Cl)C(=O)NCc1ccc(F)cc1` (centres unmarked) [MBX-2264], the CC50 at 3 days in series [2] (setting [4]) came to 85 µM. Also, the “IC50 in the ExoS′βLA assay versus reference inhibitor MBX-1641, in words” value in series [1] is “improvements”. Further, the values for the IC50 in series [1] (read-out: Ave. Secretion IC50) and in series [3] (setting [5]) were 2 µM and 30 µM, respectively.
For `CCC(Oc1ncc(Cl)cc1Cl)C(=O)NCc1ccc2sccc2c1` (centres unmarked) [MBX-2401, N-(benzo[b]thiophen-5-ylmethyl)-2-(3,5-dichloropyridin-2-yloxy)butanamide], the “inhibition” value in series [1] is “potent inhibition of secretion”.
On to `CCC(Oc1ncc(Cl)cc1Cl)C(=O)NCc1ccc2sccc2c1` (centres unmarked) [MBX-2402, N-(benzo[b]thiophen-5-ylmethyl)-2-(3,5-dichloropyridin-2-yloxy)butanamide], for which the “inhibition” value in series [1] was “little inhibitory effect”.
